The assay deals with T1, m7GpppX diphosphatase (Homo sapiens, UniProt Q96C86).
T1 sequence (Q96C86 whole entry): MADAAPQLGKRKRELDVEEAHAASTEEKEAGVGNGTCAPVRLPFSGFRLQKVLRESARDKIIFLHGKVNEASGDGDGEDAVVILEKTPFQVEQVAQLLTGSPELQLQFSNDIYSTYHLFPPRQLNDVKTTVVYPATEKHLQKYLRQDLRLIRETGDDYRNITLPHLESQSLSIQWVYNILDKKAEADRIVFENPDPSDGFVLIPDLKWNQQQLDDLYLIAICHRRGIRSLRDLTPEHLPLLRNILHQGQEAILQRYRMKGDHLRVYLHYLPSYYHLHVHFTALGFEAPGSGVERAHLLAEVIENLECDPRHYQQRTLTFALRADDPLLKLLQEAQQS
The experiment in a line: Biochemical Assay. The source says:
In vitro biochemical assay using scavenger decapping enzyme (DcpS) as a target and cell based assay using SMN2 b-lactamase NSC-34 cell reporter gene.

Structures are written as SMILES.

A word on the EC50: it is the concentration needed to bring the measured effect to its halfway point. Low values mean a more potent agent, high ones a less potent agent. In general, IC50 refers to the midpoint of a concentration-inhibition curve. Low values mean higher potency, high ones lower potency. `Cn1ccnc1CN1CCC(COc2cccc3nc(N)nc(N)c23)CC1` [D157555] returned an EC50 of 0.108 µM and an IC50 of 0.00938 µM.

Take `CC(=O)Nc1nc(CN2CCC(COc3cccc4nc(N)nc(N)c34)CC2)cs1` [D156676]: it took 2.54 µM to reach a half-maximal effect (EC50) and the IC50 was 0.339 µM.

Molecule `Nc1nc(N)c2c(OCC3CCN(CC(F)(F)F)CC3)cccc2n1` [D158963] had an EC50 of 0.223 µM and an IC50 of 0.0234 µM.

In turn, `Nc1nc(N)c2c(OCC3CCN(CC4CCNCC4)CC3)cccc2n1` [D157554] registered a concentration giving a half-maximal response (EC50) of 0.921 µM.

For `Nc1nc(N)c2c(OCC3CCN(c4ccccc4Cl)CC3)cccc2n1` [D158885], the 50% effective concentration (EC50) was 0.795 µM and the IC50 came to 0.101 µM.

In the case of `Nc1nc(N)c2c(COc3ccccc3I)cccc2n1` [D153215], the 50% effective concentration (EC50) is 0.243 µM.

Values taken from BindingDB's records for doi:10.1021/cb800120t (deCODE Chemistry Inc, 2008).
